Measured values published in publication PMC11279468, “Exploring a New Generation of Pyrimidine and Pyridine Derivatives as Anti-Influenza Agents Targeting the Polymerase PA–PB1 Subunits Interaction” (Pharmaceutics, 2024).
Like-named read-outs stand apart in the source and are kept apart here.

Tests used:
[1] = biological target: T1, PA–PB1 interaction (6His-PA(239–716) / GST-PB1(1–25)) (Influenza A virus, UniProt P03433)
HEK 293T cells = conditions: cited from earlier work
[2] = tested on: Influenza virus strain A/PR/8/34 (H1N1); conditions: plaque reduction assay in MDCK cells; cited from earlier work
MDCK cells = conditions: cited from earlier work
in vitro = conditions: dog
Method: The cytotoxicity of compounds was tested in MDCK cells using the 3-(4,5-dimethylthiazol-2-yl)-2,5-diphenyl tetrazolium bromide (MTT) method, as previously reported [32]. Briefly, MDCK cells (seeded at a density of 2 × 10^4 per well) were grown in 96-well plates for 24 h and then treated with serial dilutions of test compounds, or DMSO as a control, in DMEM supplemented with 10% FBS. After incubation at 37 °C for 48 h, 5 mg/mL of MTT (Sigma, Tokyo, Japan) in PBS was added into each well and incubated at 37 °C for a further 4 h. Successively, a solubilization solution was added to lyse the cells and incubated overnight at 37 °C. Finally, optical density was read at the wavelength of 570 nm on a microtiter plate reader (MultiSkan FC, ThermoFisher Scientific).

[3] = biological target: T1, PA–PB1 interaction (6His-PA(239–716) / GST-PB1(1–25)); test: biochemical; format: binding
[4] = tested on: Influenza virus strain A/PR/8/34 (H1N1); test: microbe, parasite or virus in culture; conditions: unidentified influenza virus, MDCK, read-out: EC50 (PRA)
[5] = read-out: IC50 (ELISA PA–PB1); ELISA PA–PB1 interaction; cited from earlier work

Row | SMILES | CC50 at 48 h (in vitro) [µM] | melting point [°C] | IC50 [3] [µM] | EC50 [4] [µM] | further results
1 | Cc1ccc(-c2cc(-c3ccccc3)nc(SCC(=O)Nc3cccc(C)c3)c2C#N)cc1 [Compound 1a] | – | – | – | – | IC50 ([1]; ELISA PA–PB1 interaction; read-out: IC50 (ELISA PA–PB1); cited from earlier work): 80 µM
2 | CCC(C)C(NC(=O)CSc1nc(-c2ccccc2)cc(-c2ccc(C)cc2)c1C#N)C(=O)OC (centres unmarked) [Compound 1b] | – | – | – | – | IC50 ([1]; read-out: IC50 (ELISA PA–PB1); ELISA-based PA–PB1 interaction assay; cited from earlier work): 36 ± 3 µM; CC50 (HEK 293T cells): 229 µM; EC50 [2]: 39 ± 2 µM; CC50 (MDCK cells): > 250 µM
3 | Cc1cccc(NC(=O)CSc2nc(-c3ccc(C(F)(F)F)cc3)cc(-c3ccc(C(F)(F)F)cc3)n2)c1 [Compound 1c] | – | – | – | – | IC50 [1, 5]: > 200 µM; CC50 (HEK 293T cells): > 250 µM; EC50 [2]: 26.5 ± 4.3 µM; CC50 (MDCK cells): > 250 µM
4 | Cc1cccc(NC(=O)CSc2nc(-c3ccccc3)cc(-c3ccccc3)n2)c1 [Compound 1d] | – | – | – | – | IC50 [1, 5]: 165 ± 18 µM; CC50 (HEK 293T cells): 22.3 µM; EC50 [2]: 3.5 ± 0.5 µM; CC50 (MDCK cells): 10.1 ± 1.7 µM
5 | Cc1cccc(NC(=O)CSc2cc(-c3ccccc3)cc(-c3ccccc3)n2)c1 [Compound 1e] | – | – | – | – | IC50 [1, 5]: 52.6 ± 9 µM; EC50 [2]: 7.3 ± 1.3 µM; CC50 (MDCK cells): > 250 µM
6 | Cc1cccc(NC(=O)CSc2nc(-c3ccc(Cl)cc3)cc(-c3ccc(Cl)cc3)n2)c1 [Compound 2a, 2-{[4,6-Bis(4-chlorophenyl)pyrimidin-2-yl]thio}-N-(m-tolyl)acetamide] | > 250 | 225 to 227 | 70.8 ± 19.5 | > 100 | –
7 | Cc1cccc(NC(=O)CSc2nc(-c3ccc(F)cc3)cc(-c3ccc(F)cc3)n2)c1 [Compound 2b, 2-{[4,6-Bis(4-fluorophenyl)pyrimidin-2-yl]thio}-N-(m-tolyl)acetamide] | > 250 | 210 to 211 | 137 ± 35 | 62.5 ± 4.3 | –
8 | Cc1cccc(NC(=O)CSc2nc(-c3ccccc3)cc(-c3ccc(Cl)cc3)n2)c1 [Compound 2c, 2-{[4-(4-Chlorophenyl)-6-phenylpyrimidin-2-yl]thio}-N-(m-tolyl)acetamide] | > 250 | 204 to 206 | 86 ± 5.3 | 45.5 ± 2.1 | –
9 | Cc1cccc(NC(=O)CSc2nc(-c3ccc(F)cc3)cc(-c3ccc(Cl)cc3)n2)c1 [Compound 2e, 2-{[4-(4-Chlorophenyl)-6-(4-fluorophenyl)pyrimidin-2-yl]thio}-N-(m-tolyl)acetamide] | 206 ± 12 | 213 to 217 | 125 ± 37 | 29.5 ± 0.7 | –
10 | Cc1cccc(NC(=O)CSc2nc(-c3ccccc3)cc(-c3cccc4ccccc34)n2)c1 [Compound 2f, 2-{[4-(Naphthalen-1-yl)-6-phenylpyrimidin-2-yl)thio)-N-(m-tolyl)acetamide] | > 250 | 147 to 148 | > 200 | 21.1 ± 8 | activity as PA–PB1 disruptors (in words) [3]: lack of activity as PA–PB1 disruptors
11 | Cc1cccc(NC(=O)CSc2nc(-c3ccc(Cl)cc3)cc(-c3cccc4ccccc34)n2)c1 [Compound 2g, 2-{[4-(4-Chlorophenyl)-6-(naphthalen-1-yl)pyrimidin-2-yl]thio}-N-(m-tolyl)acetamide] | > 250 | 103 to 107 | > 200 | > 100 | –
12 | Cc1cccc(NC(=O)CSc2nc(-c3ccc(F)cc3)cc(-c3cccc4ccccc34)n2)c1 [Compound 2h, 2-{[4-(4-Fluorophenyl)-6-(1-naphthyl)pyrimidin-2-yl]thio}-N-(3-methylphenyl)acetamide] | > 250 | 145 to 147 | > 200 | 14.8 ± 1.6 | activity as PA–PB1 disruptors (in words) [3]: lack of activity as PA–PB1 disruptors
13 | Cc1cccc(NC(=O)CSc2nc(Sc3ccccc3)cc(-c3ccccc3)n2)c1 [Compound 2i, 2-{[4-Phenyl-6-(phenylthio)pyrimidin-2-yl]thio}-N-(m-tolyl)acetamide] | 73.3 ± 9.1 | 127 to 128 | 28.8 ± 1.5 | 4.6 ± 0.3 | –
14 | Cc1cccc(NC(=O)CSc2cc(-c3ccccc3)cc(Sc3ccccc3)n2)c1 [Compound 2m, 2-{[4-Phenyl-6-(phenylthio)pyridin-2-yl]thio}-N-(m-tolyl)acetamide] | > 250 | 122 to 123 | 141 ± 44 | 32.3 ± 3.2 | –
15 | Cc1cccc(NC(=O)CSc2cc(-c3ccc(Cl)cc3)cc(Sc3ccccc3)n2)c1 [Compound 2n, 2-{[4-(4-chlorophenyl)-6-(phenylthio)pyridin-2-yl]thio}-N-(m-tolyl)acetamide] | > 250 | 93 to 95 | 87 ± 15.7 | 62.9 ± 13.2 | –
16 | COC(=O)[C@@H](NC(=O)CSc1nc(-c2ccccc2)cc(-c2ccc(F)cc2)n1)C(C)C [Compound 3a, Methyl (2-((4-(4-fluorophenyl)-6-phenylpyrimidin-2-yl)thio)acetyl)-L-valinate] | 234 ± 19 | 152 to 153 | > 200 | > 100 | –
17 | CC[C@H](C)[C@H](NC(=O)CSc1nc(-c2ccccc2)cc(-c2ccc(F)cc2)n1)C(=O)OC [Compound 3b, Methyl (2-((4-(4-fluorophenyl)-6-phenylpyrimidin-2-yl)thio)acetyl)-L-isoleucinate] | > 250 | 94 to 95 | > 200 | > 100 | –
18 | COC(=O)[C@H](Cc1ccc(O)cc1)NC(=O)CSc1nc(-c2ccccc2)cc(-c2ccc(F)cc2)n1 [Compound 3c, Methyl (2-((4-(4-fluorophenyl)-6-phenylpyrimidin-2-yl)thio)acetyl)-L-tyrosinate] | > 250 | 167 to 168 | 172 ± 7 | > 100 | –
19 | COC(=O)[C@H](Cc1c[nH]cn1)NC(=O)CSc1nc(-c2ccccc2)cc(-c2ccc(F)cc2)n1 [Compound 3d, Methyl (2-((4-(4-fluorophenyl)-6-phenylpyrimidin-2-yl)thio)acetyl)-L-histidinate] | 98 ± 11.3 | 77 to 78 | 70 ± 2.8 | > 100 | –
20 | COC(=O)[C@@H](NC(=O)CSc1nc(-c2ccc(F)cc2)cc(-c2ccc(F)cc2)n1)C(C)C [Compound 3e, Methyl (2-((4,6-bis(4-fluorophenyl)pyrimidin-2-yl)thio)acetyl)-L-valinate] | > 250 | 174 to 175 | > 200 | > 100 | –
21 | CC[C@H](C)[C@H](NC(=O)CSc1nc(-c2ccc(F)cc2)cc(-c2ccc(F)cc2)n1)C(=O)OC [Compound 3f, Methyl (2-((4,6-bis(4-fluorophenyl)pyrimidin-2-yl)thio)acetyl)-L-isoleucinate] | > 250 | 150 to 151 | > 200 | > 100 | –
22 | COC(=O)[C@H](Cc1ccc(O)cc1)NC(=O)CSc1nc(-c2ccc(F)cc2)cc(-c2ccc(F)cc2)n1 [Compound 3g, Methyl (2-((4,6-bis(4-fluorophenyl)pyrimidin-2-yl)thio)acetyl)-L-tyrosinate] | > 250 | – | > 200 | > 100 | –
23 | COC(=O)[C@H](Cc1c[nH]cn1)NC(=O)CSc1nc(-c2ccc(F)cc2)cc(-c2ccc(F)cc2)n1 [Compound 3h, Methyl (2-((4,6-bis(4-fluorophenyl)pyrimidin-2-yl)thio)acetyl)-L-histidinate] | > 250 | 107 to 108 | 108 ± 14 | > 100 | –
24 | COC(=O)[C@@H](NC(=O)CSc1cc(-c2ccccc2)cc(-c2ccccc2)n1)C(C)C [Compound 3i, Methyl (2-((4,6-diphenylpyridin-2-yl)thio)acetyl)-L-valinate] | – | 63 to 64 | > 200 | – | –
25 | CC[C@H](C)[C@H](NC(=O)CSc1cc(-c2ccccc2)cc(-c2ccccc2)n1)C(=O)OC [Compound 3j, Methyl (2-((4,6-diphenylpyridin-2-yl)thio)acetyl)-L-isoleucinate] | – | 70 to 71 | > 200 | – | –
26 | COC(=O)[C@H](Cc1ccc(O)cc1)NC(=O)CSc1cc(-c2ccccc2)cc(-c2ccccc2)n1 [Compound 3k, Methyl (2-((4,6-diphenylpyridin-2-yl)thio)acetyl)-L-tyrosinate] | – | 111 to 112 | > 200 | – | –
27 | CC[C@H](C)[C@H](NC(=O)CSc1cc(-c2ccccc2)cc(-c2ccc(F)cc2)n1)C(=O)OC [Compound 3l, Methyl (2-((6-(4-fluorophenyl)-4-phenylpyridin-2-yl)thio)acetyl)-L-isoleucinate] | – | 76 to 77 | > 200 | – | –
28 | COC(=O)[C@H](Cc1ccc(O)cc1)NC(=O)CSc1cc(-c2ccccc2)cc(-c2ccc(F)cc2)n1 [Compound 3m, Methyl (2-((6-(4-fluorophenyl)-4-phenylpyridin-2-yl)thio)acetyl)-L-tyrosinate] | – | 151 to 152 | > 200 | – | –
29 | COC(=O)[C@H](Cc1c[nH]cn1)NC(=O)CSc1cc(-c2ccccc2)cc(-c2ccc(F)cc2)n1 [Compound 3n, Methyl (2-((6-(4-fluorophenyl)-4-phenylpyridin-2-yl)thio)acetyl)-L-histidinate] | – | 155 to 156 | > 200 | – | –
